Converted amounts (≈) assume the structure as drawn. Bridge positions count the residues as written; N and C are the ends. Square brackets hold non-standard residues; d marks the D form. Peptide text beside a SMILES is read from it. * marks the point of attachment. Heptanoyl(6-Me) = CC(C)CCCCC(=O)*; Sulfomethyl = O=S(=O)(O)C*; dOrn = NCCC[C@@H](N)C(=O)O; Nonanoyl = CCCCCCCCC(=O)*; X1 = CC[C@H](C)CCCCC(=O)*; Octanoyl = CCCCCCCC(=O)*; Orn = NCCC[C@H](N)C(=O)O; Dab = NCC[C@H](N)C(=O)O; Dap = NC[C@H](N)C(=O)O
Columns and labels:
Format in all cases: cell-based
[1] = tested on: Acinetobacter baumannii ABA19-1; conditions: ABA19-1
How it was run: (§1)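 Broth microdilution per CLSI in Mueller-Hinton broth. Compounds were tested at final concentrations of 64 to 0.03 mg/L (two-fold steps) against an inoculum of (2-4) × 10^5 CFU/mL, with incubation at 35-37°C for 16-20 h to give the MIC.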

[2] = tested on: Acinetobacter baumannii NCTC 13304 (OXA-27); conditions: NCTC 13304
How it was run: as §1

[3] = tested on: Escherichia coli ATCC BAA-2340 (KPC); conditions: ATCC BAA-2340
How it was run: as §1

[4] = tested on: Escherichia coli ATCC BAA-2523; conditions: ATCC BAA-2523
How it was run: as §1

[5] = tested on: Klebsiella pneumoniae ATCC BAA-1705 (KPC); conditions: ATCC BAA-1705
How it was run: as §1

[6] = tested on: Klebsiella pneumoniae KPN+19-15; conditions: KPN+19-15
How it was run: as §1

[7] = tested on: Pseudomonas aeruginosa ATCC 27853; conditions: ATCC 27853
How it was run: as §1

[8] = tested on: Pseudomonas aeruginosa PAE19-3; conditions: PAE19-3
How it was run: as §1

[9] = Nephrotoxicity assay: in vitro cytotoxicity of HK-2 cells by CCK-8 assay; conditions: human, HK-2 cells (human renal), 72 h incubation with drug-containing medium
How it was run: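 HK-2 human renal cells in RPMI-1640 with 10% FBS were exposed to compounds at final 12.5–500 µg/mL for 72 h, then CCK-8 for 3 h and OD450 read. Viability was normalised to drug-free wells; IC50 came from logarithmic regression over three repeats, with polymyxin B as positive drug.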

Row | Compound | MIC [1] | MIC [2] | MIC [3] | MIC [4] | MIC [5] | MIC [6] | MIC [7] | MIC [8] | IC50 at 72 h [9]
1 | CC(C)CCCCC(=O)N[C@@H](CCN)C(=O)N[C@H](C(=O)N[C@H](CCCN)C(=O)N[C@H]1CCNC(=O)[C@H]([C@@H](C)O)NC(=O)[C@H](CCN)NC(=O)[C@H](CCN)NC(=O)[C@H](CC(C)C)NC(=O)[C@@H](Cc2ccccc2)NC(=O)[C@H](CCN)NC1=O)[C@@H](C)O [Compound 42, 6-methylheptanoyl-Dab-Thr-D-Orn-ring(4-10)[Dab-Dab-D-Phe-Leu-Dab-Dab-Thr]] ({Heptanoyl(6-Me)}-[Dab]T[dOrn][Dab][Dab][dF]L[Dab][Dab]T; lactam 4-C) | 0.125 µg/mL (≈ 0.104 µM) | 0.06 µg/mL (≈ 0.0499 µM) | 0.03 µg/mL (≈ 0.0249 µM) | 0.03 µg/mL (≈ 0.0249 µM) | 0.06 µg/mL (≈ 0.0499 µM) | 0.125 µg/mL (≈ 0.104 µM) | 0.25 µg/mL (≈ 0.208 µM) | 1 µg/mL (≈ 0.831 µM) | 316 ± 6.7 µg/mL (≈ 262 µM)
2 | CC[C@H](C)CCCCC(=O)N[C@@H](CCN)C(=O)N[C@H](C(=O)N[C@H](CO)C(=O)N[C@H]1CCNC(=O)[C@H]([C@@H](C)O)NC(=O)[C@H](CCN)NC(=O)[C@H](CCCN)NC(=O)[C@H]([C@@H](C)O)NC(=O)[C@@H](Cc2ccccc2)NC(=O)[C@H](CCN)NC1=O)[C@@H](C)O [Compound 76, (S)-6-methyloctanoyl-Dab-Thr-D-Ser-ring(4-10)[Dab-Dab-D-Phe-Thr-Orn-Dab-Thr]] (X1-[Dab]T[dS][Dab][Dab][dF]T[Orn][Dab]T; lactam 4-C) | 0.06 µg/mL (≈ 0.0503 µM) | ≤0.03 µg/mL | ≤0.03 µg/mL | ≤0.03 µg/mL | 0.25 µg/mL (≈ 0.21 µM) | 0.5 µg/mL (≈ 0.419 µM) | >64 µg/mL | 64 µg/mL (≈ 53.7 µM) | > 500 µg/mL
3 | CCCCCCCCC(=O)N[C@@H](CCN)C(=O)N[C@H](C(=O)N[C@H](CO)C(=O)N[C@H]1CCNC(=O)[C@H]([C@@H](C)O)NC(=O)[C@H](CCN)NC(=O)[C@H](CN)NC(=O)[C@H]([C@@H](C)O)NC(=O)[C@@H](Cc2ccccc2)NC(=O)[C@H](CCN)NC1=O)[C@@H](C)O [Compound 75, Nonanoyl-Dab-Thr-D-Ser-ring(4-10)[Dab-Dab-D-Phe-Thr-Dap-Dab-Thr]] (Nonanoyl-[Dab]T[dS][Dab][Dab][dF]T[Dap][Dab]T; lactam 4-C) | 0.06 µg/mL (≈ 0.0515 µM) | 0.03 µg/mL (≈ 0.0258 µM) | 0.06 µg/mL (≈ 0.0515 µM) | 0.06 µg/mL (≈ 0.0515 µM) | 0.25 µg/mL (≈ 0.215 µM) | 0.5 µg/mL (≈ 0.429 µM) | >64 µg/mL | 64 µg/mL (≈ 55 µM) | 310 ± 19.8 µg/mL (≈ 266 µM)
4 | CC(C)CCCCC(=O)N[C@@H](CCN)C(=O)N[C@H](C(=O)N[C@H](COCS(=O)(=O)O)C(=O)N[C@H]1CCNC(=O)[C@H]([C@@H](C)O)NC(=O)[C@H](CCN)NC(=O)[C@H](CCN)NC(=O)[C@H]([C@@H](C)O)NC(=O)[C@@H](Cc2ccccc2)NC(=O)[C@H](CCN)NC1=O)[C@@H](C)O [Compound 103, 6-methylheptanoyl-Dab-Thr-D-Ser(CH2SO3H)-ring(4-10)[Dab-Dab-D-Phe-Thr-Dab-Dab-Thr]] ({Heptanoyl(6-Me)}-[Dab]T[dS](Sulfomethyl)[Dab][Dab][dF]T[Dab][Dab]T; lactam 4-C) | 0.06 µg/mL (≈ 0.0477 µM) | 0.06 µg/mL (≈ 0.0477 µM) | 0.03 µg/mL (≈ 0.0238 µM) | 0.03 µg/mL (≈ 0.0238 µM) | 0.125 µg/mL (≈ 0.0993 µM) | 0.125 µg/mL (≈ 0.0993 µM) | 0.25 µg/mL (≈ 0.199 µM) | 0.25 µg/mL (≈ 0.199 µM) | > 500 µg/mL
5 | CCCCCCCC(=O)N[C@@H](CCN)C(=O)N[C@H](C(=O)N[C@H](CO)C(=O)N[C@H]1CCNC(=O)[C@H]([C@@H](C)O)NC(=O)[C@H](CCN)NC(=O)[C@H](CCCN)NC(=O)[C@H]([C@@H](C)O)NC(=O)[C@@H](Cc2ccccc2)NC(=O)[C@H](CCN)NC1=O)[C@@H](C)O [Compound 78, Octanoyl-Dab-Thr-D-Ser-ring(4-10)[Dab-Dab-D-Phe-Thr-Orn-Dab-Thr]] (Octanoyl-[Dab]T[dS][Dab][Dab][dF]T[Orn][Dab]T; lactam 4-C) | 0.06 µg/mL (≈ 0.0509 µM) | ≤0.03 µg/mL | ≤0.03 µg/mL | ≤0.03 µg/mL | 0.25 µg/mL (≈ 0.212 µM) | 0.5 µg/mL (≈ 0.424 µM) | >64 µg/mL | 64 µg/mL (≈ 54.3 µM) | > 500 µg/mL

— patent publication EP4725957A1, “GROUP OF CYCLIC ALKALINE LIPOPEPTIDE COMPOUNDS, AND PREPARATION METHOD THEREFOR AND USE THEREOF” (Institute of Medicinal Biotechnology, Chinese Academy of …, priority 2023, dated 2024)
